Measurements from the NIST ThermoML archive (doi:10.1021/je900596d).

Details: 343.18 K, Liquid, Vibrating tube method

FC(F)=C(F)C(F)(F)F [hexafluoropropene]
Details	mass density [kg/m3]
2323.3 kPa	1027.29
2331.8 kPa	1027.71
2340.3 kPa	1028.3
2348.6 kPa	1028.71
2357.9 kPa	1029.39
2367.9 kPa	1029.94
2376.2 kPa	1030.38
2386.7 kPa	1030.85
2396.9 kPa	1031.35
2403.7 kPa	1031.5
2413.7 kPa	1032.28
2426.4 kPa	1032.67
2437.3 kPa	1033.33
2447 kPa	1034.04
2457.9 kPa	1034.52
2464 kPa	1034.92
2470.6 kPa	1035.47
2480.5 kPa	1035.86
2486.7 kPa	1036.28
2497.1 kPa	1037.07
2503.3 kPa	1037.46
2522.8 kPa	1038.69
2540.4 kPa	1039.48
2556.8 kPa	1040.31
2578.1 kPa	1041.52
2596.9 kPa	1042.44
2616.9 kPa	1043.45
2632.9 kPa	1044.34
2650.6 kPa	1045.42
2671.6 kPa	1046.57
2693 kPa	1047.89
2710.6 kPa	1048.77
2730.2 kPa	1049.48
2747.6 kPa	1050.19
2764.4 kPa	1050.73
2782.1 kPa	1051.54
2799.6 kPa	1052.3
2815.7 kPa	1053.03
2831.9 kPa	1053.99
2852.2 kPa	1055
2887.1 kPa	1056.99
2909.8 kPa	1058.07
2930.4 kPa	1058.89
2950.3 kPa	1059.55
2967.4 kPa	1060.2
2986 kPa	1061.16
3013.7 kPa	1062.17
3046.6 kPa	1063.75
3078.2 kPa	1064.77
3103.6 kPa	1065.88
3134.8 kPa	1067.08
3168.5 kPa	1068.48
3201.9 kPa	1069.74
3235.7 kPa	1071.04
3266.7 kPa	1072.23
3300.3 kPa	1073.66
3332 kPa	1075.03
3361.4 kPa	1076.36
3394.9 kPa	1077.6
3430.3 kPa	1078.63
3463.3 kPa	1079.82
3496.3 kPa	1081.01
3518.3 kPa	1081.82
3550.7 kPa	1083.01
3586.6 kPa	1084.11
3619.2 kPa	1085.32
3651.4 kPa	1086.39
3686 kPa	1087.66
3728.2 kPa	1089.03
3764.5 kPa	1090.25
3805.5 kPa	1091.78
3846.6 kPa	1092.95
3882.5 kPa	1093.89
3923.8 kPa	1095.4
3956.8 kPa	1096.28
3999.1 kPa	1097.44
4049.2 kPa	1099.28
4092.3 kPa	1100.59
4134.3 kPa	1101.91
4183.8 kPa	1102.89
4226.9 kPa	1104.11
4279.1 kPa	1105.63
4326.3 kPa	1106.67
4369.2 kPa	1107.87
4410.8 kPa	1109.1
4451.8 kPa	1110.42
4504 kPa	1111.78
4556.4 kPa	1112.8
4599.1 kPa	1114.05
4697.6 kPa	1116.51
4742.5 kPa	1117.74
4786.3 kPa	1118.99
4833.9 kPa	1120.08
4887.4 kPa	1121.18
4933.1 kPa	1122.24
4985.1 kPa	1123.76
5029 kPa	1124.72
5073.9 kPa	1125.85
5132.4 kPa	1127.18
5174 kPa	1128.12
5238.1 kPa	1129.48
5301.9 kPa	1130.82
5346.6 kPa	1131.66
5387.9 kPa	1132.67
5429.7 kPa	1133.71
5474 kPa	1134.83
5517.7 kPa	1135.51
5596.3 kPa	1137.23
5658.9 kPa	1138.61
5702.1 kPa	1139.38
5743.1 kPa	1140.46
5803.5 kPa	1141.76
5846.3 kPa	1142.59
5891.3 kPa	1143.58
5933.5 kPa	1144.39
5995 kPa	1145.68
6036 kPa	1146.23
6160 kPa	1148.79
6218.2 kPa	1149.66
6324.7 kPa	1151.65
6365.2 kPa	1152.43
6407.3 kPa	1153.32
6470.4 kPa	1154.32
6550 kPa	1155.81
6660.8 kPa	1157.92
6725.9 kPa	1159.01
6839.7 kPa	1161.35
6887 kPa	1162.02
6930.3 kPa	1162.69
6976.6 kPa	1163.25
7038.7 kPa	1164.35
7080.9 kPa	1165.18
7123.3 kPa	1165.76
